Read-outs that look alike come from different tables or passages of the source.
Experiments:
[1] = molecular target: NS3/NS4 complexes (Hepatitis C virus genotype 1a, UniProt P27958); assay: NS3/NS4 inhibition assay (IC50); format: biochemical; conditions: NS3/NS4 activity; 23° C., 25 μM NS4A peptide
From the text: (§1) NS3-NS4 inhibition activity can be determined using known assay methods. For example, NS3/NS4 complexes may be formed and inhibitory concentrations of test compounds determined as described in U.S. Patent Application Publication Number 2007/0054842 paragraph numbers 1497-1509, which is incorporated herein by reference in its entirety. Similarly, hepatitis C replicon EC50 may be determined using known assay methods such as described in U.S. Patent Application Publication Number 2007/0054842 paragraph numbers 1510-1515, which is incorporated herein by reference in its entirety. Assays may be conducted at ambient temperature (23° C.) in assay buffer containing 50 mM Tris-HCl, pH 7.5, 15% glycerol, 0.6 mM Lauryldimethylamine Oxide (LDAO), 25 μM NS4A peptide, and 10 mM Dithiothreitol (DTT).

[2] = system: hepatitis C replicon; assay: hepatitis C replicon EC50 assay; format: cell-based; conditions: Hepatitis C virus
From the text: as §1

[3] = hepatitis C replicon, read-out: EC50

Sequence of NS3/NS4 complexes (P27958 1027-1657, one chain of several): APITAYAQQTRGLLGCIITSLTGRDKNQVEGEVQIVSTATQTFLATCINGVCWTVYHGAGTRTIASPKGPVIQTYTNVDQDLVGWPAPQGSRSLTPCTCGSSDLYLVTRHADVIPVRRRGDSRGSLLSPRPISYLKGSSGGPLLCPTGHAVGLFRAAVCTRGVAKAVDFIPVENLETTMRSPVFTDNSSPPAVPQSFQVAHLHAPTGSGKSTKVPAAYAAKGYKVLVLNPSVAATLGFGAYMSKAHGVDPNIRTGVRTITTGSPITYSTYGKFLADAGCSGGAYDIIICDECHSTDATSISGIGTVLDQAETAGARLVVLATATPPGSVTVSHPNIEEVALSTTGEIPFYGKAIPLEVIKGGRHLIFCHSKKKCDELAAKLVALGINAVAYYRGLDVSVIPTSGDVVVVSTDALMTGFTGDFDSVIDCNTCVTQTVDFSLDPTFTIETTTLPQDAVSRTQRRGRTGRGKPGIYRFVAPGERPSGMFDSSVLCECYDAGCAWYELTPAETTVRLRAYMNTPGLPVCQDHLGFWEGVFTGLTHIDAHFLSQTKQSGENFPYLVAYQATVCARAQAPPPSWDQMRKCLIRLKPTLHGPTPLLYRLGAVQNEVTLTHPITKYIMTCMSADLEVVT

Compound | IC50 [1] [µM] | EC50 [2, 3] [µM] | EC50 [2] [µM]
CC1(S(=O)(=O)NC(=O)[C@@]23C[C@H]2/C=C\CCCCC[C@H](Nc2ccccc2)C(=O)N2C[C@H](n4ncc(-c5ccccc5)n4)C[C@H]2C(=O)N3)CC1 [Compound 1503] | < 0.01 | > 0.1 | 
CC(C)c1nc(-c2cccc3c2nc(O[C@@H]2C[C@H]4C(=O)N[C@]5(C(=O)NS(=O)(=O)N(C)C)C[C@H]5/C=C\CCCCC[C@H](NC(=O)OC(C)(C)C)C(=O)N4C2)n3C(C)C)sc1C(C)C [Compound 1201] | < 0.01 | > 0.1 | 
CC(C)n1c(O[C@@H]2C[C@H]3C(=O)N[C@]4(C(=O)NS(=O)(=O)N(C)C)C[C@H]4/C=C\CCCCC[C@H](NC(=O)OC(C)(C)C)C(=O)N3C2)nc2c(-c3nc(-c4ccc(Cl)cc4)cs3)cccc21 [Compound 1751] | < 0.01 | 0.01 to 0.1 | 
CC(C)n1c(O[C@@H]2C[C@H]3C(=O)N[C@]4(C(=O)NS(=O)(=O)N(C)C)C[C@H]4/C=C\CCCCC[C@H](NC(=O)OC(C)(C)C)C(=O)N3C2)nc2c(-c3nc(Cc4cccc(F)c4)cs3)cccc21 [Compound 1758] | < 0.01 | 0.01 to 0.1 | 
CC(C)n1c(O[C@@H]2C[C@H]3C(=O)N[C@]4(C(=O)NS(=O)(=O)C5CC5)C[C@H]4/C=C\CCCCC[C@H](NC(=O)OC(C)(C)C)C(=O)N3C2)nc2c(-c3nc4ccccc4s3)cccc21 [Compound 214] | < 0.01 | < 0.01 | 
C=Cc1cccc2c1nc(O[C@@H]1C[C@H]3C(=O)N[C@]4(C(=O)NS(=O)(=O)C5CC5)C[C@H]4/C=C\CCCCC[C@H](NC(=O)OC(C)(C)C)C(=O)N3C1)n2C(C)C [Compound 225] | < 0.01 | < 0.01 | 
COc1ccc2c(O[C@@H]3C[C@H]4C(=O)N[C@]5(C(=O)NS(=O)(=O)C6(C)CC6)C[C@H]5/C=C\CCCCC[C@H](Nc5cccc(C(C)(C)C)c5)C(=O)N4C3)cc(-c3nc(C(C)C)cs3)nc2c1C [Compound 129] | < 0.01 | 0.01 to 0.1 | 
CC(C)n1c(O[C@@H]2C[C@H]3C(=O)N[C@]4(C(=O)NS(=O)(=O)C5(C)CC5)C[C@H]4/C=C\CCCCC[C@H](Nc4ccccc4)C(=O)N3C2)nc2c(NC(=O)Nc3ccccc3)cccc21 [Compound 287] | < 0.01 |  | 0.01 to 0.1
COc1ccc2c(O[C@@H]3C[C@H]4C(=O)N[C@]5(C(=O)NS(=O)(=O)C6(C)CC6)C[C@H]5/C=C\CCCCC[C@H](Nc5cccc(C(=O)N6CCN(C(=O)c7ccco7)CC6)c5)C(=O)N4C3)cc(-c3nc(C(C)C)cs3)nc2c1C [Compound 121] | < 0.01 | 0.01 to 0.1 | 
CCCN1CCN(C(=O)c2cccc(N[C@H]3CCCCC/C=C\[C@@H]4C[C@@]4(C(=O)NS(=O)(=O)C4(C)CC4)NC(=O)[C@@H]4C[C@@H](Oc5cc(-c6nc(C(C)C)cs6)nc6c(C)c(OC)ccc56)CN4C3=O)c2)CC1 [Compound 113] | < 0.01 | < 0.01 | 
CCn1c(O[C@@H]2C[C@H]3C(=O)N[C@]4(C(=O)NS(=O)(=O)N(C)C)C[C@H]4/C=C\CCCCC[C@H](NC(=O)OC(C)(C)C)C(=O)N3C2)nc2c(-c3nc(C(C)C)c(C)o3)cccc21 [Compound 1204] | < 0.01 | < 0.01 | 
CC(C)n1c(O[C@@H]2C[C@H]3C(=O)N[C@]4(C(=O)NS(=O)(=O)C5(C)CC5)C[C@H]4/C=C\CCCCC[C@H](NC(=O)OC(C)(C)C)C(=O)N3C2)nc2c(-c3csc(C4CC4)n3)cccc21 [Compound 1702] | < 0.01 | < 0.01 | 
Cc1cnc(-c2cccc3c2nc(O[C@@H]2C[C@H]4C(=O)N[C@]5(C(=O)NS(=O)(=O)N(C)C)C[C@H]5/C=C\CCCCC[C@H](NC(=O)OC(C)(C)C)C(=O)N4C2)n3C(C)C)s1 [Compound 229] | < 0.01 | < 0.01 | 
CCn1c(O[C@@H]2C[C@H]3C(=O)N[C@]4(C(=O)NS(=O)(=O)N(C)C)C[C@H]4/C=C\CCCCC[C@H](NC(=O)OC(C)(C)C)C(=O)N3C2)nc2c(-c3nc(C(C)C)cs3)cccc21 [Compound 1430] | < 0.01 | 0.01 to 0.1 | 
CC(C)n1c(O[C@@H]2C[C@H]3C(=O)N[C@]4(C(=O)NS(=O)(=O)C5(C)CC5)C[C@H]4/C=C\CCCCC[C@H](Nc4ccccc4)C(=O)N3C2)nc2c(C(N)=O)cccc21 [Compound 268] | < 0.01 | 0.01 to 0.1 | 
CC(C)n1c(O[C@@H]2C[C@H]3C(=O)N[C@]4(C(=O)NS(=O)(=O)N(C)C)C[C@H]4/C=C\CCCCC[C@H](NC(=O)OC(C)(C)C)C(=O)N3C2)nc2c(-c3nc(-c4ccccc4Cl)cs3)cccc21 [Compound 1749] | < 0.01 | 0.01 to 0.1 | 
CC(C)n1c(O[C@@H]2C[C@H]3C(=O)N[C@]4(C(=O)NS(=O)(=O)C5(C)CC5)C[C@H]4/C=C\CCCCC[C@H](NC(=O)OC(C)(C)C)C(=O)N3C2)nc2c(-c3nc(-c4ccccc4F)cs3)cccc21 [Compound 1710] | < 0.01 | 0.01 to 0.1 | 
CC(C)n1c(O[C@@H]2C[C@H]3C(=O)N[C@]4(C(=O)NS(=O)(=O)N(C)C)C[C@H]4/C=C\CCCCC[C@H](NC(=O)OC(C)(C)C)C(=O)N3C2)nc2c(NC(=O)OCCc3ccccc3)cccc21 [Compound 1429] | < 0.01 | < 0.01 | 

Compound | IC50 [1] [µM] | EC50 [2, 3] [µM] | EC50 [2] [µM]
COc1ccc2c(O[C@@H]3C[C@H]4C(=O)N[C@]5(C(=O)NS(=O)(=O)C6(C)CC6)C[C@H]5/C=C\CCCCC[C@H](Nc5cccc(C(=O)N6CCN(C(=O)C7CC7)CC6)c5)C(=O)N4C3)cc(-c3nc(C(C)C)cs3)nc2c1C [Compound 119] | < 0.01 | < 0.01 | 
CC(C)n1c(O[C@@H]2C[C@H]3C(=O)N[C@]4(C(=O)NS(=O)(=O)C5(C)CC5)C[C@H]4/C=C\CCCCC[C@H](NC(=O)OC(C)(C)C)C(=O)N3C2)nc2c(-c3cnc(N4CCCC4)cn3)cccc21 [Compound 1705] | < 0.01 | < 0.01 | 
CC(C)c1nc(-c2cccc3c2nc(O[C@@H]2C[C@H]4C(=O)N[C@]5(C(=O)NS(=O)(=O)C6(C)CC6)C[C@H]5/C=C\CCCCC[C@H](NC(=O)OC(C)(C)C)C(=O)N4C2)n3C(C)C)sc1C(C)C [Compound 1213] | < 0.01 | 0.01 to 0.1 | 
CC(C)n1c(O[C@@H]2C[C@H]3C(=O)N[C@]4(C(=O)NS(=O)(=O)N(C)C)C[C@H]4/C=C\CCCCC[C@H](NC(=O)OC(C)(C)C)C(=O)N3C2)nc2c(-c3nc(C4CCCCC4)cs3)cccc21 [Compound 1770] | < 0.01 | 0.01 to 0.1 | 
CCNC(=O)c1cccc2c1nc(O[C@@H]1C[C@H]3C(=O)N[C@]4(C(=O)NS(=O)(=O)C5(C)CC5)C[C@H]4/C=C\CCCCC[C@H](Nc4ccccc4)C(=O)N3C1)n2C(C)C [Compound 271] | < 0.01 | 0.01 to 0.1 | 
CC(C)n1c(O[C@@H]2C[C@H]3C(=O)N[C@]4(C(=O)NS(=O)(=O)N(C)C)C[C@H]4/C=C\CCCCC[C@H](NC(=O)OC(C)(C)C)C(=O)N3C2)nc2c(-c3csc(N4CCOCC4)n3)cccc21 [Compound 1741] | < 0.01 | < 0.01 | 
CC(C)n1c(O[C@@H]2C[C@H]3C(=O)N[C@]4(C(=O)NS(=O)(=O)C5(C)CC5)C[C@H]4/C=C\CCCCC[C@H](NC(=O)OC(C)(C)C)C(=O)N3C2)nc2c(-c3csc(-c4ccccc4)n3)cccc21 [Compound 1701] | < 0.01 | 0.01 to 0.1 | 
CC(C)n1c(O[C@@H]2C[C@H]3C(=O)N[C@]4(C(=O)NS(=O)(=O)C5(C)CC5)C[C@H]4/C=C\CCCCC[C@H](Nc4ccc(C(F)(F)F)cc4)C(=O)N3C2)nc2cncnc21 [Compound 501] | < 0.01 | > 0.1 | 
CCNC(=O)c1cccc2c1nc(O[C@@H]1C[C@H]3C(=O)N[C@]4(C(=O)NS(=O)(=O)N(C)C)C[C@H]4/C=C\CCCCC[C@H](NC(=O)OC(C)(C)C)C(=O)N3C1)n2C(C)C [Compound 280] | < 0.01 | < 0.01 | 
CC(C)n1c(O[C@@H]2C[C@H]3C(=O)N[C@]4(C(=O)NS(=O)(=O)C5(C)CC5)C[C@H]4/C=C\CCCCC[C@H](Nc4ccccc4)C(=O)N3C2)nc2c(-c3cccc(C(=O)N(C)C)c3)cccc21 [Compound 248] | < 0.01 | 0.01 to 0.1 | 
COc1ccc2c(O[C@@H]3C[C@H]4C(=O)N[C@]5(C(=O)NS(=O)(=O)C6(C)CC6)C[C@H]5/C=C\CCCCC[C@H](Nc5cccc(C(=O)N6CC(C)OC(C)C6)c5)C(=O)N4C3)cc(-c3nc(C(C)C)cs3)nc2c1C (some centres unmarked) [Compound 106] | < 0.01 | < 0.01 | 
COc1ccc(-c2nn([C@@H]3C[C@H]4C(=O)N[C@]5(C(=O)NS(=O)(=O)C6(C)CC6)C[C@H]5/C=C\CCCCC[C@H](Nc5ccccc5)C(=O)N4C3)nc2-c2nccs2)cc1 [Compound 1506] | < 0.01 | 0.01 to 0.1 | 
CNC(=O)c1cccc2c1nc(O[C@@H]1C[C@H]3C(=O)N[C@]4(C(=O)NS(=O)(=O)N(C)C)C[C@H]4/C=C\CCCCC[C@H](NC(=O)OC(C)(C)C)C(=O)N3C1)n2C(C)C [Compound 278] | < 0.01 | 0.01 to 0.1 | 
CC(C)(C)OC(=O)N[C@H]1CCCCC/C=C\[C@@H]2C[C@@]2(C(=O)NS(=O)(=O)C2CC2)NC(=O)[C@@H]2C[C@@H](Oc3ncc4ncn(Cc5ccccc5)c4n3)CN2C1=O [Compound 506] | < 0.01 | > 0.1 | 
CCc1nc2ccccc2nc1O[C@@H]1C[C@H]2C(=O)N[C@]3(C(=O)NS(=O)(=O)C4(C)CC4)C[C@H]3/C=C\CCCCC[C@H](Nc3ccccc3)C(=O)N2C1 [Compound 312] | < 0.01 | 0.01 to 0.1 | 
CC(C)n1c(O[C@@H]2C[C@H]3C(=O)N[C@]4(C(=O)NS(=O)(=O)N(C)C)C[C@H]4/C=C\CCCCC[C@H](NC(=O)OC(C)(C)C)C(=O)N3C2)nc2c(-c3cccnc3)cccc21 [Compound 1738] |  | < 0.01 | 
CC(C)c1csc(-c2cccc3c2nc(O[C@@H]2C[C@H]4C(=O)N[C@]5(C(=O)NS(=O)(=O)C6(C)CC6)C[C@H]5/C=C\CCCCC[C@H](NC(=O)OC5C[C@@H]6C[C@@H]6C5)C(=O)N4C2)n3C(C)C)n1 (some centres unmarked) [Compound 1411] |  | 0.01 to 0.1 | 

— patent publication US20110081315A1, “NOVEL MACROCYCLIC INHIBITORS OF HEPATITIS C VIRUS REPLICATION” (INTERMUNE, INC., priority 2009, published 2011)
